The record followed here is US20240092799A1, “MNK INHIBITORS” (Hepagene Therapeutics (HK) Limited, priority 2020, published 2024).

SMILES strings stand for the structures. A value given as a limit tells only on which side of the number the result lay.

A word on the IC50: it is the point on the concentration scale where inhibition reaches its midpoint. A lower IC50 goes with greater potency in that assay.

Sequence of MNK2 (Q9HBH9 whole entry): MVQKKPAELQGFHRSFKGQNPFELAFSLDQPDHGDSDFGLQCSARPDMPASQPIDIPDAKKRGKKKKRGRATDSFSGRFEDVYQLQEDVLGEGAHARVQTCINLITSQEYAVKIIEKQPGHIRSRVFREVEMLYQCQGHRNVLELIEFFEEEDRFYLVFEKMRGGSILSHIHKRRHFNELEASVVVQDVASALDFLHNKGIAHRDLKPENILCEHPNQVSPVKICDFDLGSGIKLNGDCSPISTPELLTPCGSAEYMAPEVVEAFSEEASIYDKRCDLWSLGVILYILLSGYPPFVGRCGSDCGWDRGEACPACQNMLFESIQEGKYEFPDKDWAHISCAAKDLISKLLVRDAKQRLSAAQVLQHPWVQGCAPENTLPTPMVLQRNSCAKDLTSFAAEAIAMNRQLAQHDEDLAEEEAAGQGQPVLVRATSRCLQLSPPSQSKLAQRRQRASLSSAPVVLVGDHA

The experiment addresses MNK2 (Homo sapiens (Human), UniProt Q9HBH9). Kind of experiment: MNK Biochemical Enzymatic Assay (ADP-Glo), MNK2 binding assay. As to the method:
MNK Biochemical Enzymatic Assay. This protocol establishes the binding assays for MNK1 and MNK2 using ADP-Glo assay. MNK phosphorylates the substrate and converts ATP to ADP, which was detected by Envision and used to reflect the reminding activity of MNK. Reagents and equipment used in the assay are listed below, followed by the protocol.
• a) Add 50 μL compound to 384-well dilution plate • b) Dilute compound 1:3 in succession in DMSO for each column for 10+0 pts (refer to dilution plate map) • c) Transfer 0.1 μL diluted compound solution in each row to 384 assay plate using Echo, each column containing 2 replicates (refer to assay plate map) • d) Add 5 μL enzyme working solution to 384-well assay plate, centrifuge 1000 RPM for 1 min • e) Incubate at 25° C. for 15 min • f) Add 5 μL substrate working solution to initiate reaction • g) Incubate at 25° C. for 60 min • h) Add 10 μL ADP Glo reagent, centrifuge 1000 RPM for 1 min • i) Incubate at 25° C. for 60 min • j) Add 20 μL kinase detection reagent, centrifuge 1000 RPM for 1 min • k) Incubate at 25° C. for 60 min • l) Read on Envision for US LUM as RLU • m) Data analysis: IC50s were determined based on a non-linear regression analysis of data collected.
In general terms: ADP-Glo first removes unused ATP, then detects ADP through luciferase.
For `Cc1cc(Nc2cc(Nc3ccc(C4=CCOCC4)cn3)ncn2)[n+]([O-])c2c1C(=O)NC21CCCCC1` [Compound XXIX-AAS, 2′-((6-((5-(3,6-dihydro-2H-pyran-4-yl)pyridin-2-yl)amino)pyrimidin-4-yl)amino)-4′-methyl-5′-oxo-5′,6′-dihydrospiro[cyclohexane-1,7′-pyrrolo[3,4-b]pyridine] 1′-oxide], the IC50 fell in the range of 0.1 to 10 nM.
`Cc1c(N)ncnc1Nc1cc2c(s1)C(=O)NC21CCCCC1` [Compound X-D, 2′-((6-amino-5-methylpyrimidin-4-yl)amino)spiro[cyclohexane-1,4′-thieno[2,3-c]pyrrol]-6′(5′H)-one] returned an IC50 of 10 to 100 nM.
`Cn1cccc(Nc2cc(Nc3cc4c(s3)C(=O)NC43CCCCC3)ncn2)c1=O` [Compound XXIV-L, 2′-((6-((1-methyl-2-oxo-1,2-dihydropyridin-3-yl)amino)pyrimidin-4-yl)amino)spiro[cyclohexane-1,4′-thieno[2,3-c]pyrrol]-6′(5′H)-one] had an IC50 of 100 to 1000 nM.
The result for `Cc1cc(-c2cc(-c3cc(N)ncn3)no2)cc2c1C(=O)NC21CCCCC1` [Compound VII, 6′-(3-(6-Aminopyrimidin-4-yl)isoxazol-5-yl)-4′-methylspiro[cyclohexane-1,1′-isoindolin]-3′-one] reads more than 1000 nM.
`CC(=O)N1CC[C@H](Nc2cc(Nc3cc(C)c4c([n+]3[O-])C3(CCCCC3)NC4=O)ncn2)C1` [Compound XXIX-J, (S)-2′-((6-((1-acetylpyrrolidin-3-yl)amino)pyrimidin-4-yl)amino)-4′-methyl-5′-oxo-5′,6′-dihydrospiro[cyclohexane-1,7′-pyrrolo[3,4-b]pyridine] 1′-oxide] yielded an IC50 of 100 to 1000 nM.
In the case of `O=C1NC2(CCCCC2)c2cc(Nc3ncnc4sccc34)sc21` [Compound X-B, 2′-(thieno[2,3-d]pyrimidin-4-ylamino)spiro[cyclohexane-1,4′-thieno[2,3-c]pyrrol]-6′(5′H)-one], the IC50 was 100 to 1000 nM.
`Cc1cc(Nc2cc(Nc3ccncc3)ncn2)[n+]([O-])c2c1C(=O)NC21CCCCC1` [Compound XXIX-AK, 4′-methyl-5′-oxo-2′-{[6-(pyridin-4-ylamino)pyrimidin-4-yl]amino}-6′H-Spiro[cyclohexane-1,7′-pyrrolo[3,4-b]pyridin]-1′-ium-1′-olate] registered an IC50 of 10 to 100 nM.
The result for `O=C1NC2(CCCCC2)c2cc(Nc3cc(NC4CCCCC4)ncn3)sc21` [Compound XXIV-J, 2′-((6-(cyclohexylamino)pyrimidin-4-yl)amino)spiro[cyclohexane-1,4′-thieno[2,3-c]pyrrol]-6′(5′H)-one] reads 10 to 100 nM; that for `Cc1cc(Nc2cc(NC(=O)c3ccccn3)ncn2)[n+]([O-])c2c1C(=O)NC21CCCCC1` [Compound XXIX-AAF, 4′-methyl-5′-oxo-2′-((6-(picolinamido)pyrimidin-4-yl)amino)-5′,6′-dihydrospiro[cyclohexane-1,7′-pyrrolo[3,4-b]pyridine] 1′-oxide], 10 to 100 nM.
In the case of `COC(=O)C1(Nc2cc(Nc3cc(C)c4c([n+]3[O-])C3(CCCCC3)NC4=O)ncn2)CCOC1` (stereo not drawn) [Compound XXIX-AAG, 2′-((6-((3-(methoxycarbonyl)tetrahydrofuran-3-yl)amino)pyrimidin-4-yl)amino)-4′-methyl-5′-oxo-5′,6′-dihydrospiro[cyclohexane-1,7′-pyrrolo[3,4-b]pyridine] 1′-oxide] it was 100 to 1000 nM.
Compound `Cc1c(NC(=O)C2CC2)ncnc1Nc1cc2c(s1)C(=O)NC21CCCCC1` [Compound XX-C, N-(5-Methyl-6-((6′-oxo-5′,6′-dihydrospiro[cyclohexane-1,4′-thieno[2,3-c]pyrrol]-2′-yl)amino)pyrimidin-4-yl)cyclopropanecarboxamide] gave an IC50 of 100 to 1000 nM.
In the case of `O=C1NC2(CCCCC2)c2cc(Nc3ncnc4cccnc34)sc21` [Compound XXX, 2′-(pyrido[3,2-d]pyrimidin-4-ylamino)spiro[cyclohexane-1,4′-thieno[2,3-c]pyrrol]-6′(5′H)-one] it was 10 to 100 nM; in that of `O=C1NC2(CCCCC2)c2cc(Nc3cc(NC(=O)C4CC4)ncn3)sc21` [Compound XX-A, N-(6-((6′-Oxo-5′,6′-dihydrospiro[cyclohexane-1,4′-thieno[2,3-c]pyrrol]-2′-yl)amino)pyrimidin-4-yl)cyclopropanecarboxamide], 10 to 100 nM; in that of `CC(=O)N(C)c1cccc(Nc2cc(Nc3nc4c(s3)C(=O)NC43CCCCC3)ncn2)c1` [Compound XXVIII-I, N-methyl-N-(3-((6-((6′-oxo-5′,6′-dihydrospiro[cyclohexane-1,4′-pyrrolo[3,4-d]thiazol]-2′-yl)amino)pyrimidin-4-yl)amino)phenyl)acetamide], 10 to 100 nM.
The compound `O=C1NC2(CCCCC2)c2cc(Nc3cc(N[C@@H]4CCCOC4)ncn3)sc21` [Compound XXIV-F, (R)-2′-((6-((tetrahydro-2H-pyran-3-yl)amino)pyrimidin-4-yl)amino)spiro[cyclohexane-1,4′-thieno[2,3-c]pyrrol]-6′(5′H)-one] registered an IC50 of 10 to 100 nM.
`COc1c(Nc2nc3c(s2)C(=O)NC32CCCCC2)ncnc1N[C@H]1CCOC1` [Compound XXVIII-F, (S)-2′-((5-methoxy-6-((tetrahydrofuran-3-yl)amino)pyrimidin-4-yl)amino)spiro[cyclohexane-1,4′-pyrrolo[3,4-d]thiazol]-6′(5′H)-one] had an IC50 of more than 1000 nM.
For the compound `O=C1NC2(CCCCC2)c2cc(Nc3cc(NCc4cccs4)ncn3)sc21` [Compound XXIV, 2′-((6-((Thiophen-2-ylmethyl)amino)pyrimidin-4-yl)amino)spiro[cyclohexane-1,4′-thieno[2,3-c]pyrrol]-6′(5′H)-one], the IC50 fell in the range of 10 to 100 nM.
As for `Cc1cc(Nc2cc(N[C@H]3CCC[C@@H]3O)ncn2)[n+]([O-])c2c1C(=O)NC21CCCCC1` [Compound XXIX-V, 2′-((6-(((1S,2S)-2-hydroxycyclopentyl)amino)pyrimidin-4-yl)amino)-4′-methyl-5′-oxo-5′,6′-dihydrospiro[cyclohexane-1,7′-pyrrolo[3,4-b]pyridine] 1′-oxide], the IC50 lay within 10 to 100 nM.
Turning to `Cc1cc(Nc2cc(NC3CCOCC3)ncn2)[n+]([O-])c2c1C(=O)NC21CCCCC1` [Compound XXIX-R, 4′-methyl-5′-oxo-2′-((6-((tetrahydro-2H-pyran-4-yl)amino)pyrimidin-4-yl)amino)-5′,6′-dihydrospiro[cyclohexane-1,7′-pyrrolo[3,4-b]pyridine] 1′-oxide], the IC50 is 100 to 1000 nM.
The result for `O=C1NC2(CCCCC2)c2cc(Nc3cc(Nc4ccccc4F)ncn3)sc21` [Compound XXIV-E, 2′-((6-((2-fluorophenyl)amino)pyrimidin-4-yl)amino)spiro[cyclohexane-1,4′-thieno[2,3-c]pyrrol]-6′(5′H)-one] reads 10 to 100 nM; that for `CC(=O)N1CC(Nc2cc(Nc3cc(C)c4c([n+]3[O-])C3(CCCCC3)NC4=O)ncn2)C1` [Compound XXIX-AC, 2′-((6-((1-acetylazetidin-3-yl)amino)pyrimidin-4-yl)amino)-4′-methyl-5′-oxo-5′,6′-dihydrospiro[cyclohexane-1,7′-pyrrolo[3,4-b]pyridine] 1′-oxide], 10 to 100 nM.
In turn, `C[C@@H]1CN(C(=O)C2CCc3c(sc4ncnc(Nc5cc6c(s5)C(=O)NC65CCCCC5)c34)C2)CCN1C` (stereo partly drawn) [Compound XXV-A, 2′-((7-((R)-3,4-Dimethylpiperazine-1-carbonyl)-5,6,7,8-tetrahydrobenzo[4,5]thieno[2,3-d]pyrimidin-4-yl)amino)spiro[cyclohexane-1,4′-thieno[2,3-c]pyrrol]-6′(5′H)-one] displayed an IC50 of 10 to 100 nM.
Regarding `CC(=O)N(C)c1cccc(Nc2cc(Nc3cc(C)c4c([n+]3[O-])C3(CCCCC3)NC4=O)ncn2)c1` [Compound XXIX-N, 4′-methyl-2′-((6-((3-(N-methylacetamido)phenyl)amino)pyrimidin-4-yl)amino)-5′-oxo-5′,6′-dihydrospiro[cyclohexane-1,7′-pyrrolo[3,4-b]pyridine] 1′-oxide], the IC50 is 10 to 100 nM.
`Nc1cc(Nc2cc3c(s2)C(=O)NC32CCCCC2)ncn1` [Compound X, 2′-((6-Aminopyrimidin-4-yl)amino)spiro[cyclohexane-1,4′-thieno[2,3-c]pyrrol]-6′(5′H)-one]: the IC50 lay within 10 to 100 nM.
In the case of `O=C1NC2(CCCCC2)c2cc(Nc3cc(NCC4CCCO4)ncn3)sc21` (stereo not drawn) [Compound XXIII-Q, 2′-((6-(((tetrahydrofuran-2-yl)methyl)amino)pyrimidin-4-yl)amino)spiro[cyclohexane-1,4′-thieno[2,3-c]pyrrol]-6′(5′H)-one] it was 10 to 100 nM.
Take `CN(C)C(=O)C1CCc2c(sc3ncnc(Nc4cc5c(s4)C(=O)NC54CCCCC4)c23)C1` (stereo not drawn) [Compound XXV-B, N,N-Dimethyl-4-((6′-oxo-5′,6′-dihydrospiro[cyclohexane-1,4′-thieno[2,3-c]pyrrol]-2′-yl)amino)-5,6,7,8-tetrahydrobenzo[4,5]thieno[2,3-d]pyrimidine-7-carboxamide]: the IC50 lay within 10 to 100 nM.
In the case of `O=C1NC2(CCCCC2)c2cc(Nc3ncnc(NC(=O)C4CC4)c3Cl)sc21` [Compound XX-7, N-(5-Chloro-6-((6′-oxo-5′,6′-dihydrospiro[cyclohexane-1,4′-thieno[2,3-c]pyrrol]-2′-yl)amino)pyrimidin-4-yl)cyclopropanecarboxamide] it was 100 to 1000 nM.
